What all share (format): biochemical
The target of one experiment is Human recombinant HDAC4 (Homo sapiens (Human), UniProt P56524). Description: Test 2: HDAC4 assay (fluorogenic substrate, 5 μM acetyl-Gly-Ala-Lys(ε-trifluoroacetyl)-AMC). The conditions noted are these: Test 2 (values without asterisk). The essentials: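 After the reaction, bovine trypsin (300 nM solution) was added for 15 min at RT to develop the signal; fluorescence read at 360/450 nm. No-enzyme background subtracted; IC50 from 4-parameter logistic fit of dose-response curves.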

Experiment [1] has as its target Human recombinant full length HDAC1 (Homo sapiens (Human), UniProt Q13547). Description: Test 3: HDAC1 assay. The conditions noted are these: substrate 5 μM acetyl-Gly-Ala-Lys(acetyl)-AMC. In outline:
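Baculovirus-expressed full-length human HDAC1 with 5 μM acetyl-Gly-Ala-Lys(acetyl)-AMC substrate, developed with trypsin 15 min at room temperature.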

Experiment [2] has as its target Human recombinant full length HDAC6 (Homo sapiens (Human), UniProt Q9UBN7). Description: Test 4: HDAC6 assay. The essentials: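 Baculovirus-expressed full-length recombinant human HDAC6 with 5 μM acetyl-Gly-Ala-Lys(acetyl)-AMC substrate, developed with trypsin 15 min at room temperature.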
Where [3] appears, read: Test 4, substrate 5 μM acetyl-Gly-Ala-Lys(acetyl)-AMC.

Read-outs that look alike come from different tables or passages of the source.

Sequence of Human recombinant full length HDAC1 (Q13547 whole entry): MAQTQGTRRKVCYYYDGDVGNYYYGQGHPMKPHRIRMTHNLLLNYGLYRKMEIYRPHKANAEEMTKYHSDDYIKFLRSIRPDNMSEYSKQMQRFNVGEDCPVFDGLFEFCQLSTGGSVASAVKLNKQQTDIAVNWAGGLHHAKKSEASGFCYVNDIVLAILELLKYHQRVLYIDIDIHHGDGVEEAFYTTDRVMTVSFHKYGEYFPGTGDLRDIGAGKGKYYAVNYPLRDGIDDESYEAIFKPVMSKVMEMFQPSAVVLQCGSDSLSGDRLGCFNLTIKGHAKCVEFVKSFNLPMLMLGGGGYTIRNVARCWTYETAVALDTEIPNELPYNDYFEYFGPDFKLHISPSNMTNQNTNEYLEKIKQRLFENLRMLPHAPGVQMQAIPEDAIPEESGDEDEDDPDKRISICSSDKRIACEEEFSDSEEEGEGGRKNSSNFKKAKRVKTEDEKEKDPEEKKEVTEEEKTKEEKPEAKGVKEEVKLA
Sequence of Human recombinant full length HDAC6 (Q9UBN7 whole entry): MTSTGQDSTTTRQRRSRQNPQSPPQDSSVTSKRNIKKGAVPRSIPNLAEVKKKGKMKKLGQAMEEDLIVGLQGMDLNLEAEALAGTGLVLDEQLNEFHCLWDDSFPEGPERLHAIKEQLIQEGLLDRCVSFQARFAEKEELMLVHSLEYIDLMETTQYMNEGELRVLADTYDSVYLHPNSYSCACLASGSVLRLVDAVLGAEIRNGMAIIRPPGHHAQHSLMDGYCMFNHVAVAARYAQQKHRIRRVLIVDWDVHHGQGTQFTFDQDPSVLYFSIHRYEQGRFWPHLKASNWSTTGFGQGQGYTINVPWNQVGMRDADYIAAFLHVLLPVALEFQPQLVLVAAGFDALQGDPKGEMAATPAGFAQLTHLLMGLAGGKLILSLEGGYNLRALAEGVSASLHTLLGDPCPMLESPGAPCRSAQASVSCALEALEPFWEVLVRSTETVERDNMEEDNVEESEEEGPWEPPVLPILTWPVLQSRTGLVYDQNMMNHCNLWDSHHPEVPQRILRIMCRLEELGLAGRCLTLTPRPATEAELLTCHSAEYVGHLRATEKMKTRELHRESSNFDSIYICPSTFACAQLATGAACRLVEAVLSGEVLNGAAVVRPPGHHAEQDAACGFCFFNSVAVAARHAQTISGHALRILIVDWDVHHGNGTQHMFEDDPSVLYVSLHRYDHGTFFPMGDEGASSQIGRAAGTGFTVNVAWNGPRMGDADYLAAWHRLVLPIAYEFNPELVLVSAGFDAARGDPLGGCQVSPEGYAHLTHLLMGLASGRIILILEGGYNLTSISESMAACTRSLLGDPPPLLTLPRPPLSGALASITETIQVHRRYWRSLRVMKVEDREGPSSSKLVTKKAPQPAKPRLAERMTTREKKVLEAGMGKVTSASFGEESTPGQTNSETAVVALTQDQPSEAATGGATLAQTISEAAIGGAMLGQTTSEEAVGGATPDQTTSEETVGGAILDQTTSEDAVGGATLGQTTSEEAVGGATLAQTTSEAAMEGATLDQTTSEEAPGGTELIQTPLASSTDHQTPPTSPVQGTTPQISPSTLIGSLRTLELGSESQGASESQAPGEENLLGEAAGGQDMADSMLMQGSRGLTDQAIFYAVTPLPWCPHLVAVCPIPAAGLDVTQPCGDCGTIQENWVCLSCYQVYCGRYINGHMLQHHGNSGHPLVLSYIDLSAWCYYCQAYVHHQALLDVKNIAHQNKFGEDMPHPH
Sequence of Human recombinant HDAC4 (P56524 2-1084): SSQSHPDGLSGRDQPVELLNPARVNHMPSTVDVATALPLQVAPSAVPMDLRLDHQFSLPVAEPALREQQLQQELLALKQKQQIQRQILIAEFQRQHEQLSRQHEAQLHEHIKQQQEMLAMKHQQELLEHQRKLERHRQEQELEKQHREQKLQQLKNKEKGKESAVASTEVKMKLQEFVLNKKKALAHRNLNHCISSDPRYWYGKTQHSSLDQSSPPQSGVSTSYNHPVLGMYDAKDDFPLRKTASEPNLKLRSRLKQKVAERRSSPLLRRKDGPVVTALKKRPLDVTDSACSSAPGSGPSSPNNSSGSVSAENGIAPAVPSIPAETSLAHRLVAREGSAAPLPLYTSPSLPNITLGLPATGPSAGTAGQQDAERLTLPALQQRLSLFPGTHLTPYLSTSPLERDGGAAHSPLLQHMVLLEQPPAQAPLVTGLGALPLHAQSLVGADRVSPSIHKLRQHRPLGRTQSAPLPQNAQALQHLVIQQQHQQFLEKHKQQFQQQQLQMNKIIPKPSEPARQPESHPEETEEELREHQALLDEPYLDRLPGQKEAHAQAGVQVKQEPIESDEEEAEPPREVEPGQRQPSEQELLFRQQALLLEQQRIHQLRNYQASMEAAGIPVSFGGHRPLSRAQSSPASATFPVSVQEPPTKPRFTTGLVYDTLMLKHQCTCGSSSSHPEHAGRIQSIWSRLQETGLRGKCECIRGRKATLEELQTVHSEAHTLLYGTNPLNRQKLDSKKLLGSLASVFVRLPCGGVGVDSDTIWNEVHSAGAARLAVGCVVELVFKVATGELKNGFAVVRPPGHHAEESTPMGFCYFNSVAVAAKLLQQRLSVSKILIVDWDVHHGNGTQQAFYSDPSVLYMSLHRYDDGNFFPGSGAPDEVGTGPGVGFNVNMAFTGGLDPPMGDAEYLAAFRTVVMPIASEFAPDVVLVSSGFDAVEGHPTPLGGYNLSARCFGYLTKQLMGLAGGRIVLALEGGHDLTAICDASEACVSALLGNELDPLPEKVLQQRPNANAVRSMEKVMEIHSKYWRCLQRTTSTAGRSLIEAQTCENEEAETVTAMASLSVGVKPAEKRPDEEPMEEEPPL

Turning to `C[C@H](CN1CCCCC1)NC(=O)c1ccc(-c2noc(C(F)(F)F)n2)cc1F` [Example 129, (R)-2-fluoro-N-(1-(piperidin-1-yl)propan-2-yl)-4-(5-(trifluoromethyl)-1,2,4-oxadiazol-3-yl)benzamide], the IC50 on Human recombinant HDAC4 amounted to 0.013 µM; in experiment [1] it was 9.05 µM; in experiment [2] (setting [3]), 3 µM.
Regarding `O=C(NCCCO)c1ccc(-c2noc(C(F)(F)F)n2)cc1` [Example 17, N-(3-hydroxyypropyl)-4-(5-(trifluoromethyl)-1,2,4-oxadiazol-3-yl)benzamide], the IC50 on Human recombinant HDAC4 was 1.4 µM; in experiment [1] it was > 10 µM; in experiment [2], 8.6 µM.
As for `O=S(=O)(Nc1ccc(F)cc1)c1ccc(-c2noc(C(F)(F)F)n2)cc1` [Example 109, N-(4-fluorophenyl)-4-(5-(trifluoromethyl)-1,2,4-oxadiazol-3-yl)benzenesulfonamide], the figures for the IC50 (on Human recombinant HDAC4; in experiment [1]; in experiment [2] (setting [3])) were 0.097 µM, > 10 µM and 0.44 µM, respectively.
As for `CCCCN(C)C[C@@H](C)NC(=O)c1ccc(-c2noc(C(F)(F)F)n2)cc1` [Example 150, (R)—N-(1-(butyl(methyl)amino)propan-2-yl)-4-(5-(trifluoromethyl)-1,2,4-oxadiazol-3-yl)benzamide], the IC50 on Human recombinant HDAC4 was 0.0011 µM; in experiment [1] it was 1.2 µM; in experiment [2] (setting [3]), 3.1 µM.
In the case of `O=C(NCC1CCCCN1)c1ccc(-c2noc(C(F)(F)F)n2)cc1` (stereo not drawn) [Example 78, N-(piperidin-2-ylmethyl)-4-(5-(trifluoromethyl)-1,2,4-oxadiazol-3-yl)benzamide], the IC50 at Human recombinant HDAC4 was 0.03 µM; in experiment [1], > 10 µM; in experiment [2] (setting [3]), 7 µM.
As to `CC(C)CC(CO)NC(=O)c1ccc(-c2noc(C(F)(F)F)n2)cc1` (stereo not drawn) [Example 58, N-(1-hydroxy-4-methylpentan-2-yl)-4-(5-(trifluoromethyl)-1,2,4-oxadiazol-3-yl)benzamide], the IC50 is 0.65 µM on Human recombinant HDAC4, > 10 µM in experiment [1] and 5.5 µM in experiment [2] (setting [3]).
Taken in the same sequence, the figures for `CCN(CC)C[C@@H](C)NC(=O)c1ccc(-c2noc(C(F)(F)F)n2)cc1F` [Example 126, (R)—N-(1-(diethylamino)propan-2-yl)-2-fluoro-4-(5-(trifluoromethyl)-1,2,4-oxadiazol-3-yl)benzamide] were 0.0089 µM, > 10 µM and 3.9 µM.
Regarding `O=C(Nc1ccccc1)c1ccc(-c2noc(C(F)(F)F)n2)cc1` [Example 35, N-phenyl-4-(5-(trifluoromethyl)-1,2,4-oxadiazol-3-yl)benzamide], the IC50 on Human recombinant HDAC4 was 6.7 µM; in experiment [1] it was > 10 µM; in experiment [2] (setting [3]), > 10 µM.
As to `CCCN(CCC)C[C@@H](C)NC(=O)c1ccc(-c2noc(C(F)(F)F)n2)cc1F` [Example 141, (R)—N-(1-(dipropylamino)propan-2-yl)-2-fluoro-4-(5-(trifluoromethyl)-1,2,4-oxadiazol-3-yl)benzamide], the results for the IC50 (on Human recombinant HDAC4; in experiment [1]; in experiment [2] (setting [3])) were 0.0014 µM, 4.2 µM and 1.4 µM, respectively.
In the same order, the values of `O=C(NC1CCNC1)c1ccc(-c2noc(C(F)(F)F)n2)cc1` (stereo not drawn) [Example 80, N-(pyrrolidin-3-yl)-4-(5-(trifluoromethyl)-1,2,4-oxadiazol-3-yl)benzamide] are 0.47 µM, > 10 µM and > 10 µM.
Regarding `O=C(NCCCn1ccnc1)c1ccc(-c2noc(C(F)(F)F)n2)cc1` [Example 40, N-(3-(1 H-imidazol-1-yl)propyl)-4-(5-(trifluoromethyl)-1,2,4-oxadiazol-3-yl)benzamide], the IC50 on Human recombinant HDAC4 was 0.46 µM; in experiment [1] it was > 10 µM; in experiment [2] (setting [3]), 4.6 µM.
In the same order, the values of `CCCCNC(=O)Cc1ccc(-c2noc(C(F)(F)F)n2)cc1` [Example 6, N-butyl-2-(4-(5-(trifluoromethyl)-1,2,4-oxadiazol-3-yl)phenyl)acetamide] are 0.63 µM, > 10 µM and 3.2 µM.
Consider `O=C(Nc1ccncc1)c1ccc(-c2noc(C(F)(F)F)n2)cc1` [Example 47, N-(ppyridin-4-yl)-4-(5-(trifluoromethyl)-1,2,4-oxadiazol-3-yl)benzamide], for which the IC50 on Human recombinant HDAC4 is 0.054 µM; in experiment [1] it was > 10 µM; in experiment [2] (setting [3]) it was 2.1 µM.
Consider `O=C(c1ccc(-c2noc(C(F)(F)F)n2)cc1)N1CCCC1` [Example 23, Pyrrolidin-1-yl(4-(5-(trifluoromethyl)-1,2,4-oxadiazol-3-yl)phenyl)methanone], for which the IC50 is 1.5 µM at Human recombinant HDAC4, > 10 µM in experiment [1] and 6 µM in experiment [2] (setting [3]).
Taken in the same sequence, the figures for `C[C@H](CN(C)C)NC(=O)c1ccc(-c2noc(C(F)(F)F)n2)cc1F` [Example 88, (R)—N-(1-(dimethylamino)propan-2-yl)-2-fluoro-4-(5-(trifluoromethyl)-1,2,4-oxadiazol-3-yl)benzamide] were 0.012 µM, > 10 µM and 4.7 µM.
Consider `O=C(NC1CCCNC1)c1ccc(-c2noc(C(F)(F)F)n2)cc1` (stereo not drawn) [Example 79, N-(piperidin-3-yl)-4-(5-(trifluoromethyl)-1,2,4-oxadiazol-3-yl)benzamide], for which the IC50 at Human recombinant HDAC4 was 0.8 µM; in experiment [1] it was > 10 µM; in experiment [2] (setting [3]), > 10 µM.
Turning to `CC(C)[C@H](CN(C)C)NC(=O)c1ccc(-c2noc(C(F)(F)F)n2)cc1` [Example 84, (R)—N-(1-(dimethylamino)-3-methylbutan-2-yl)-4-(5-(trifluoromethyl)-1,2,4-oxadiazol-3-yl)benzamide], the IC50 at Human recombinant HDAC4 was 0.49 µM; in experiment [1], > 10 µM; in experiment [2] (setting [3]), > 10 µM.
Take `Cc1cc(NC(=O)c2ccc(-c3noc(C(F)(F)F)n3)cc2)cc(C)n1` [Example 68, N-(2,6-dimethylpyridin-4-yl)-4-(5-(trifluoromethyl)-1,2,4-oxadiazol-3-yl)benzamide]: the IC50 at Human recombinant HDAC4 is 0.17 µM; in experiment [1] it was > 10 µM; in experiment [2] (setting [3]), 5.3 µM.
With `O=S(=O)(N[C@@H]1CCNC1)c1ccc(-c2noc(C(F)(F)F)n2)cc1` [Example 102, (R)—N-(pyrrolidin-3-yl)-4-(5-(trifluoromethyl)-1,2,4-oxadiazol-3-yl)benzenesulfonamide], the IC50 is 3.2 µM at Human recombinant HDAC4, > 10 µM in experiment [1] and > 10 µM in experiment [2] (setting [3]).
In the case of `O=C(NCCc1ccccc1)c1ccc(-c2noc(C(F)(F)F)n2)cc1` [Example 45, N-phenethyl-4-(5-(trifluoromethyl)-1,2,4-oxadiazol-3-yl)benzamide], the IC50 is 4.2 µM on Human recombinant HDAC4, > 10 µM in experiment [1] and > 10 µM in experiment [2] (setting [3]).
For `CN(C)C1CCN(C(=O)c2ccc(-c3noc(C(F)(F)F)n3)cc2)CC1` [Example 39, (4-(dimethylamino)piperidin-1-yl)(4-(5-(trifluoromethyl)-1,2,4-oxadiazol-3-yl)phenyl)methanone], the values for the IC50 (on Human recombinant HDAC4; in experiment [1]; in experiment [2] (setting [3])) were 1.2 µM, > 10 µM and > 10 µM, respectively.
In the case of `CN1CCC(CNS(=O)(=O)c2ccc(-c3noc(C(F)(F)F)n3)cc2)C1` (stereo not drawn) [Example 115, N-((1-methylpyrrolidin-3-yl)methyl)-4-(5-(trifluoromethyl)-1,2,4-oxadiazol-3-yl)benzenesulfonamide], the IC50 is 2.7 µM at Human recombinant HDAC4, > 10 µM in experiment [1] and > 10 µM in experiment [2] (setting [3]).

For the origin of these results see US9056843B2, “Trifluoromethyl-oxadiazole derivatives and their use in the treatment of disease” (NOVARTIS AG, priority 2011, dated 2015).
